Test results published in patent US20130150430A1, “Methods for Impairing the P53/HDM2 Auto-Regulatory Loop in Multiple Myeloma Development Using mIR-192, mIR-194 and mIR-215” (THE OHIO STATE UNIVERSITY, priority 2011, published 2013).

What was measured:
Format in all cases: cell-based, human
WT p53 MM cells = experiment: Colony suppression assay after lentiviral miRNA transduction; details: lentivirus-transduced WT p53 cells; miR-34a internal control; scored at 14 days
Procedure: FIG. 3E, FIG. 3F: Soft agar colony suppression assay in WT TP53 and mutant TP53 MM cell lines after miRNAs transduction by lentivectors.
A total of 30×10^3 cells were infected with Lenti-mir-192: PMIRH 192-PA-1 Lenti-mir-194-1:PMIRH 1941PA-1; Lenti-mir-215:PMIRH 215 PA-1; Control Lentivector(pCDH-CMV-EFI-copGFP cDNA cloning and Expression vector): CD511 B-1 (System Biosciences) as per the manufacturer's protocol. MM cells were plated in quadruplicate in 1 mL of methylcellulose medium for Mouse cells (Cat#03234, Stem cell Technologies) in 6-well culture plates. Colonies consisting of more than 40 (125μ) cells were scored at 14 days.

MM1s and NCI-H929 cells = experiment: Cell cycle analysis by flow cytometry; details: 48 hr of transfection after nocodazole synchronization; scrambled-transfected ~30%
Procedure: FIG. 3G, FIG. 3H, FIG. 31, FIG. 3J: Flow cytometry analysis in MM1s (FIG. 3G), NCI-H929 (FIG. 3H) and KMS28BM (FIG. 31) cells (miR-192, miR-194, miR-215 and Scr transfected) at 48 hr of transfection, after first being arrested and synchronized in G2/M phase by Nocodazole for 16 hr. Apoptosis in KMS28BM was evaluated by caspase-3 activity (FIG. 3J). All experiments were performed in triplicate ±SD.
Nocodazole was (Sigma-Aldrich) was dissolved in DMSO as a stock solution of 10 mg/ml for cell cycle arrest in G2/M phase. Cells were first arrested and synchronized in G2/M phase by growth in 80 nM nocodazole for 16 hr. Cells were then washed and fresh medium added. After 6 hr, cell cycle analysis was performed by propidium iodide staining. Corresponding amounts of DMSO alone were added in control experiments. […] For DNA content analysis, cells were fixed in methanol at −20° C., washed again, rehydrated, re-suspended in PBS containing 50 μg/ml propidium iodide (PI) and 50 μg/ml RNase A, and analyzed by flow cytometry (Becton Dickinson). […] After the treatment the cells were analyzed using Caspase-Glo 3 Assay kit (Promega) according to the manufacturer's instructions. Continuous variables were expressed as mean values ± standard deviation (s.d.).

[1] = test system: IGF-1R and IGF-1 in MM1s cells; experiment: Western blot of IGF-1R and IGF-1 after miRNA transfection; details: pre-miRNA transfected
Procedure: FIG. 6A, FIG. 6B: Western blot showing IGF-1R and IGF-1 expression after miR-192 and miR-215 transfection using pre (FIG. 6A) and ASOs (FIG. 6B) for miR-192, miR-215, miR-194 and Scr in MM1s cells treated for 12 hr with Nutlin-3a.
Samples were extracted in 15 mM Tris.Cl, pH 7.5/120 mM NaCl/25 mM KCl/2 mM EGTA/0.1 mM DTT/0.5% Triton X-100/[…] leupeptin/0.5 mM PMSF. Total protein (35 μg) from each sample was separated on a 4-20% Tris-HCl-Criterion precast gel Bio-Rad (cat#345-0032, Hercules, Calif.) and transferred to a poly(vinylidene difluoride) filter (Millipore). The filter was blocked in 5% nonfat dry milk, incubated with the specific antibody, washed, and probed with secondary antibody IgG conjugated to horseradish peroxidase (Santa Cruz Biotechnology), and developed with enhanced chemiluminescence (Amersham Pharmacia). […]

Substance: miR-192: microRNA, p53-activated, down-regulated in MM; transfected as miRNA precursor (Ambion) or lentivector; SEQ ID NO:56 (CUGACCUAUGAAUUGACAGCC; listed as RNA, chemistry not given here; listed as Homo sapiens)
- colony formation (WT p53 MM cells): suppressed colony formation to an extent comparable to miR-34a
- cells in G0/G1 arrest (MM1s and NCI-H929 cells): ~60%
- IGF-1R and IGF-1 protein levels [1]: decreased

Substance: miR-215: microRNA, p53-activated, down-regulated in MM; transfected as miRNA precursor (Ambion) or lentivector; SEQ ID NO:58 (AUGACCUAUGAAUUGACAGAC; listed as RNA, chemistry not given here; listed as Homo sapiens)
- colony formation (WT p53 MM cells): suppressed colony formation to an extent comparable to miR-34a
- cells in G0/G1 arrest (MM1s and NCI-H929 cells): ~60%
- IGF-1R and IGF-1 protein levels [1]: decreased
